Results: article PMC6504579 (Journal of immunology (Baltimore, Md. : 1950), 2019)
Like-named read-outs stand apart in the source and are kept apart here.

Assay type: in vitro ADME, human
Settings: for ATK9 epitope produced (share of degradation products): representative donor; for degradation rate of substrate in CD3/CD28-stimulated vs non-stimulated extracts: paired CD4 T cell cytosolic extracts, 37 °C, pH 7.4, LC-MS/MS; for time of peak production of N-extended TW10 precursors: sampled at 2, 5 and 8 h
[1] = CD3/CD28-stimulated extract, 120 min
[2] = CD3/CD28-stimulated extract, 180 min
[3] = non-stimulated extract, 120 min
[4] = non-stimulated extract, 180 min

Row | Structure (SMILES) | antitopes produced (share of degradation products) [1] | ATK9 epitope produced (share of degradation products) [1] | antitopes produced (share of degradation products) [2] | ATK9 epitope produced (share of degradation products) [2] | antitopes produced (share of degradation products) [3] | ATK9 epitope produced (share of degradation products) [3] | antitopes produced (share of degradation products) [4] | ATK9 epitope produced (share of degradation products) [4] | degradation rate of substrate in CD3/CD28-stimulated vs non-stimulated extracts | time of peak production of N-extended TW10 precursors (activated extracts) | time of peak production of N-extended TW10 precursors (extracts from resting CD4 T cells) | detection of optimal TW10 at 2, 5 and 8 hours (paired resting and activated extracts)
1 | CC[C@H](C)[C@H](NC(=O)[C@H](C)NC(=O)[C@@H]1CCCN1C(=O)[C@H](CO)NC(=O)CNC(=O)[C@H](CCCCN)NC(=O)[C@@H](N)Cc1c[nH]c2ccccc12)C(=O)N[C@@H](Cc1ccccc1)C(=O)N[C@@H](CCC(N)=O)C(=O)N[C@@H](CO)C(=O)N[C@@H](CO)C(=O)N[C@@H](CCSC)C(=O)N[C@H](C(=O)N[C@@H](CCCCN)C(=O)N[C@H](C(=O)N[C@@H](CC(C)C)C(=O)O)[C@@H](C)CC)[C@@H](C)O [5-ATK9–2] | 66.43% | 0.49% | 79.38% | 0.54% | 48.1% | 1.05% | 57.7% | 1.06% | degraded faster |  |  | 
2 | CC[C@H](C)[C@H](NC(=O)[C@H](CCC(N)=O)NC(=O)[C@H](CCC(=O)O)NC(=O)[C@H](CCC(N)=O)NC(=O)[C@H](CC(C)C)NC(=O)[C@@H](NC(=O)[C@H](CO)NC(=O)[C@@H](NC(=O)[C@@H](NC(=O)CNC(=O)[C@H](C)NC(=O)[C@@H](NC(=O)[C@@H](N)CC(=O)O)[C@@H](C)CC)[C@@H](C)O)[C@@H](C)O)[C@@H](C)O)C(=O)NCC(=O)N[C@@H](Cc1c[nH]c2ccccc12)C(=O)N[C@@H](CCSC)C(=O)N[C@H](C(=O)N[C@@H](CC(N)=O)C(=O)O)[C@@H](C)O [5-TW10–3] |  |  |  |  |  |  |  |  | faster degradation rates | 2 h | 5 h | only in activated extracts
